According to patent publication US20200253978A1, “HETEROCYCLICS AS INHIBITORS OF FIBROBLAST GROWTH FACTOR RECEPTOR” (ADVENT PHARMA CO. LTD., priority 2017, published 2020):

Assays:
[1] = biological target: T1, BaF3 cells expressing Tel-FGFR-4 and luciferase (Homo sapiens, UniProt P22455); test: BaF3 cellular growth inhibition assay, Tel-FGFR-4 and luciferase (Bright-Glo); format: cell-based; conditions: BaF3 Tel-FGFR-4 cells, 2 days incubation, 50% growth inhibition vs DMSO
T1 construct: Luciferase is co-expressed as a viability reporter and is not part of the key; P41212 (Transcription factor ETV6)
Experimental: (§1) Compounds' inhibitory activities against FGFR-4 or FGFR-1 were measured in BaF3 cells expressing Tel-FGFR-4 and luciferase or Tel-FGFR-1 and luciferase, whose growth was dependent on FGFR-4 or FGFR-1 kinase but independent of IL-3. The cells were plated in 384-well plates in RPMI1640 with 10% FBS. Compounds were added as 11-point dilutions. Cell viability was determined by Bright-Glo luciferase assay (Promega) after cells were incubated with compounds for 2 days. The IC50 value was determined as the concentration for 50% growth inhibition compared to DMSO treated cells (A: IC50<0.1 μM; B: IC50 between 0.1 μM and 1 μM; C: IC50 between 1 μM and 10 μM).

[2] = biological target: T2, BaF3 cells expressing Tel-FGFR-1 and luciferase (Homo sapiens, UniProt P11362); test: BaF3 cellular growth inhibition assay, Tel-FGFR-1 and luciferase (Bright-Glo); format: cell-based; conditions: BaF3 Tel-FGFR-1 cells, 2 days incubation, 50% growth inhibition vs DMSO
T2 construct: Luciferase is co-expressed as a viability reporter and is not part of the key; P41212 (Transcription factor ETV6)
Experimental: as §1

T2 sequence (P11362 478-767 limits assumed): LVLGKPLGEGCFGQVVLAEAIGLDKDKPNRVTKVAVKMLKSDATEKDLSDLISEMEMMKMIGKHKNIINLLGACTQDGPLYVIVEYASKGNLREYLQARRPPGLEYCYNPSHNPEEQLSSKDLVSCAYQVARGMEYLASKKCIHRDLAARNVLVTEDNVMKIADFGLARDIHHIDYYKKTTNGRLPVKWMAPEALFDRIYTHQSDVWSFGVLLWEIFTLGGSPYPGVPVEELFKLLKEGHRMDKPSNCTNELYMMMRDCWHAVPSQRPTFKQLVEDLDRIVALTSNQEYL
T1 sequence (P22455 467-755 limits assumed): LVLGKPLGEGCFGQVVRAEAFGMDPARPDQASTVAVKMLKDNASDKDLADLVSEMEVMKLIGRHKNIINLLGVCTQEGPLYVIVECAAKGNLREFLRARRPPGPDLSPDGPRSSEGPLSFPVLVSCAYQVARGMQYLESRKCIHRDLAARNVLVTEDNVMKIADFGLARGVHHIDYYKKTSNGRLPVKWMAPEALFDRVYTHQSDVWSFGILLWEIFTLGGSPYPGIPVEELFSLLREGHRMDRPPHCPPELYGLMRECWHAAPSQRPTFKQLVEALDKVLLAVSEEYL

`C=CC(=O)Nc1cc(N2CCN(CC)CC2)ccc1Nc1cc2c(O)c(C(=O)c3c(F)c(OC)cc(OC)c3F)oc2cn1` [Example 36, N-(2-((2-(2,6-difluoro-3,5-dimethoxybenzoyl)-3-hydroxyfuro[2,3-c]pyridin-5-yl)amino)-5-(4-ethylpiperazin-1-yl)phenyl)acrylamide] gave an IC50 [1] of 1 to 10 µM and an IC50 ([2]; numeric bounds) greater than 10 µM.
In the case of `C=CC(=O)Nc1cc(N2CCN(CC)CC2)ccc1Nc1ccc2c(ccn2Cc2c(F)c(OC)cc(OC)c2F)n1` [Example 1, N-(2-((1-(2,6-difluoro-3,5-dimethoxybenzyl)-1H-pyrrolo[3,2-b]pyridin-5-yl)amino)-5-(4-ethylpiperazin-1-yl)phenyl)acrylamide], the IC50 [1] is reported as 0.1 to 1 µM and the IC50 ([2]; numeric bounds) is reported as greater than 3.3 µM.
With `C=CC(=O)Nc1cc(N2CCN(CC)CC2)ccc1Nc1cc2c(C(=O)c3c(F)c(OC)cc(OC)c3F)c[nH]c2cn1` [Example 22, N-(2-((3-(2,6-difluoro-3,5-dimethoxybenzoyl)-1H-pyrrolo[2,3-c]pyridin-5-yl)amino)-5-(4-ethylpiperazin-1-yl)phenyl)acrylamide] the IC50 [1] was 0.1 to 1 µM and the IC50 ([2]; class symbols) was 1 to 10 µM.
With `C=CC(=O)Nc1cc(N2CCN(CC)CC2)ccc1Nc1cc2cc(C(=O)c3c(F)c(OC)cc(OC)c3F)oc2cn1` [Example 3, N-(2-((2-(2,6-difluoro-3,5-dimethoxybenzoyl)furo[2,3-c]pyridin-5-yl)amino)-5-(4-ethylpiperazin-1-yl)phenyl)acrylamide] the IC50 [1] was less than 0.1 µM and the IC50 ([2]; numeric bounds) was greater than 10 µM.
Compound `C=CC(=O)Nc1cccc(Cl)c1Nc1cc2cc(C(O)c3c(F)c(OC)cc(OC)c3F)oc2cn1` (racemic) [Example 29, (±)-N-(3-chloro-2-((2-((2,6-difluoro-3,5-dimethoxyphenyl)(hydroxy)methyl)furo[2,3-c]pyridin-5-yl)amino)phenyl)acrylamide] has an IC50 [1] of less than 0.1 µM and an IC50 ([2]; numeric bounds) greater than 10 µM.
In the case of `C=CC(=O)Nc1cc(N2CCN(CC)CC2)ccc1Nc1cc2cc(C(F)(F)c3c(F)c(OC)cc(OC)c3F)oc2cn1` [Example 8, N-(2-((2-((2,6-difluoro-3,5-dimethoxyphenyl)difluoromethyl)furo[2,3-c]pyridin-5-yl)amino)-5-(4-ethylpiperazin-1-yl)phenyl)acrylamide], the IC50 [1] is reported as 0.1 to 1 µM and the IC50 ([2]; numeric bounds) is reported as greater than 10 µM.
Work on `C=CC(=O)Nc1cccc(C)c1Nc1cc2cc(C(O)c3c(F)c(OC)cc(OC)c3F)sc2cn1` (racemic) [Example 28, (±)-N-(2-((2-((2,6-difluoro-3,5-dimethoxyphenyl)(hydroxy)methyl)thieno[2,3-c]pyridin-5-yl)amino)-3-methylphenyl)acrylamide] yielded an IC50 [1] of less than 0.1 µM and an IC50 ([2]; numeric bounds) greater than 10 µM.
For `C=CC(=O)Nc1cn(C)nc1Nc1cc2cc(C(O)c3c(F)c(OC)cc(OC)c3F)oc2cn1` (racemic) [Example 10, (±)-N-(3-((2-((2,6-difluoro-3,5-dimethoxyphenyl)(hydroxy)methyl)furo[2,3-c]pyridin-5-yl)amino)-1-methyl-1H-pyrazol-4-yl)acrylamide], the IC50 [1] was 0.1 to 1 µM and the IC50 ([2]; numeric bounds) was greater than 3.3 µM.
In the case of `C=CC(=O)Nc1cc(N2CCN(CC)CC2)ccc1Nc1cc2cc(C(=O)c3c(F)c(OC)cc(OC)c3F)[nH]c2cn1` [Example 21, N-(2-((2-(2,6-difluoro-3,5-dimethoxybenzoyl)-1H-pyrrolo[2,3-c]pyridin-5-yl)amino)-5-(4-ethylpiperazin-1-yl)phenyl)acrylamide], the IC50 [1] is reported as 0.1 to 1 µM and the IC50 ([2]; numeric bounds) is reported as greater than 3.3 µM.
Work on `C=CC(=O)Nc1cc(N2CCN(CC)CC2)ccc1Nc1ncc2oc(C(O)c3c(F)c(OC)cc(OC)c3F)cc2n1` (racemic) [Example 31, (±)-N-(2-((6-((2,6-difluoro-3 ,5-dimethoxyphenyl)(hydroxy)methyl)furo[3,2-d]pyrimidin-2-yl)amino)-5-(4-ethylpiperazin-1-yl)phenyl)acrylamide] yielded an IC50 [1] of less than 0.1 µM and an IC50 ([2]; class symbols) of 1 to 10 µM.
For `C=CC(=O)Nc1cccc(C(F)(F)F)c1Nc1cc2cc(C(=O)c3c(F)c(OC)cc(OC)c3F)oc2cn1` [Example 25, N-(2-((2-(2,6-difluoro-3,5-dimethoxybenzoyl)furo[2,3-c]pyridin-5-yl)amino)-3-(trifluoromethyl)phenyl)acrylamide], the IC50 [1] was 0.1 to 1 µM and the IC50 ([2]; numeric bounds) was greater than 3.3 µM.
Work on `C=CC(=O)Nc1cc(N2CCN(CC)CC2)ccc1Nc1cc2cc(C(C)(O)c3c(F)c(OC)cc(OC)c3F)oc2cn1` (racemic) [Example 7, (±)-N-(2-((2-(1-(2,6-difluoro-3,5-dimethoxyphenyl)-1-hydroxyethyl)furo[2,3-c]pyridin-5-yl)amino)-5-(4-ethylpiperazin-1-yl)phenyl)acrylamide] yielded an IC50 [1] of 0.1 to 1 µM and an IC50 ([2]; numeric bounds) greater than 10 µM.
For `C=CC(=O)Nc1cccc(C(F)(F)F)c1Nc1cc2cc(C(O)c3c(F)c(OC)cc(OC)c3F)oc2cn1` (racemic) [Example 30, (±)-N-(2-((2-((2,6-difluoro-3,5-dimethoxyphenyl)(hydroxy)methyl)furo[2,3-c]pyridin-5-yl)amino)-3-(trifluoromethyl)phenyl)acrylamide], the IC50 [1] was 0.1 to 1 µM and the IC50 ([2]; numeric bounds) was greater than 10 µM.
In the case of `C=CC(=O)Nc1cccc(C)c1Nc1cc2cc(C(=O)c3c(F)c(OC)cc(OC)c3F)oc2cn1` [Example 17, N-(2-((2-(2,6-difluoro-3,5-dimethoxybenzoyl)furo[2,3-c]pyridin-5-yl)amino)-3-methylphenyl)acrylamide], the IC50 [1] is reported as less than 0.1 µM and the IC50 ([2]; numeric bounds) is reported as greater than 10 µM.
In the case of `C=CC(=O)Nc1cc(N2CCN(CC)CC2)ccc1Nc1ncc2oc(C(=O)c3c(F)c(OC)cc(OC)c3F)cc2n1` [Example 20, N-(2-((6-(2,6-difluoro-3,5-dimethoxybenzoyl)furo[3,2-d]pyrimidin-2-yl)amino)-5-(4-ethylpiperazin-1-yl)phenyl)acrylamide], the IC50 [1] is reported as less than 0.1 µM and the IC50 ([2]; class symbols) is reported as 1 to 10 µM.
In the case of `C=CC(=O)Nc1cc(N2CCN(CC)CC2)ccc1Nc1cc2cc(C(=O)c3c(F)c(OC)cc(OC)c3F)sc2cn1` [Example 16, N-(2-((2-(2,6-difluoro-3,5-dimethoxybenzoyl)thieno[2,3-c]pyridin-5-yl)amino)-5-(4-ethylpiperazin-1-yl)phenyl)acrylamide], the IC50 [1] is reported as less than 0.1 µM and the IC50 ([2]; class symbols) is reported as 1 to 10 µM.
For `C=CC(=O)N[C@H]1CCOC[C@H]1Nc1ncc2oc(C(=O)c3c(F)c(OC)cc(OC)c3F)cc2n1` [Example 35, N-((3S,4S)-3-((6-(2,6-difluoro-3,5-dimethoxybenzoyl)furo[3,2-d]pyrimidin-2-yl)amino)tetrahydro-2H-pyran-4-yl)acrylamide], the IC50 [1] was less than 0.1 µM and the IC50 ([2]; numeric bounds) was greater than 10 µM.
In the case of `C=CC(=O)N[C@H]1CCOC[C@H]1Nc1cc2cc(C(=O)c3c(F)c(OC)cc(OC)c3F)oc2cn1` [Example 12, N-((3S,4S)-3-((2-(2,6-difluoro-3,5-dimethoxybenzoyl)furo[2,3-c]pyridin-5-yl)amino)tetrahydro-2H-pyran-4-yl)acrylamide], the IC50 [1] is reported as 0.1 to 1 µM and the IC50 ([2]; numeric bounds) is reported as greater than 10 µM.
With `C=CC(=O)N[C@H]1CCOC[C@H]1Nc1cc2cc(-c3c(Cl)c(OC)cc(OC)c3Cl)oc2cn1` [Example 37, N-((3S,4S)-3-((2-(2,6-dichloro-3,5-dimethoxyphenyl)furo[2,3-c]pyridin-5-yl)amino)tetrahydro-2H-pyran-4-yl)acrylamide] the IC50 [1] was 0.1 to 1 µM and the IC50 ([2]; numeric bounds) was greater than 10 µM.
For `C=CC(=O)N[C@H]1CCOC[C@H]1Nc1cc2cc(C(O)c3c(F)c(OC)cc(OC)c3F)oc2cn1` (mixture of isomers) [Example 14, (±)N-((3S,4S)-3-((2-((2,6-difluoro-3,5-dimethoxyphenyl)(hydroxy)methyl)furo[2,3-c]pyridin-5-yl)amino)tetrahydro-2H-pyran-4-yl)acrylamide], the IC50 [1] was 0.1 to 1 µM and the IC50 ([2]; numeric bounds) was greater than 10 µM.
Work on `C=CC(=O)Nc1cc(N2CCN(CC)CC2)ccc1Nc1cc2cc(C(=O)Nc3c(F)c(OC)cc(OC)c3F)oc2cn1` [Example 32, 5-((2-acrylamido-4-(4-ethylpiperazin-1-yl)phenyl)amino)-N-(2,6-difluoro-3,5-dimethoxyphenyl)furo[2,3-c]pyridine-2-carboxamide] yielded an IC50 [1] of 0.1 to 1 µM and an IC50 ([2]; numeric bounds) greater than 3.3 µM.
`C=CC(=O)Nc1cccc(C)c1Nc1cc2cc(C(=O)c3c(F)c(OC)cc(OC)c3F)sc2cn1` [Example 24, N-(2-((2-(2,6-difluoro-3,5-dimethoxybenzoyl)thieno[2,3-c]pyridin-5-yl)amino)-3-methylphenyl)acrylamide] was tested, and the IC50 [1] was less than 0.1 µM and the IC50 ([2]; numeric bounds) was greater than 6.65 µM.
Compound `C=CC(=O)Nc1cc(N2CCN(CC)CC2)ccc1Nc1cc2cc(C(=O)c3c(F)c(OC)cc(OC)c3F)n(C)c2cn1` [Example 19, N-(2-((2-(2,6-difluoro-3,5-dimethoxybenzoyl)-1-methyl-1H-pyrrolo[2,3-c]pyridin-5-yl)amino)-5-(4-ethylpiperazin-1-yl)phenyl)acrylamide] has an IC50 [1] of 0.1 to 1 µM and an IC50 ([2]; class symbols) of 1 to 10 µM.
`C=CC(=O)Nc1cccc(C)c1Nc1ncc2oc(C(=O)c3c(F)c(OC)cc(OC)c3F)cc2n1` [Example 23, N-(2-((6-(2,6-difluoro-3,5-dimethoxybenzoyl)furo[3,2-d]pyrimidin-2-yl)amino)-3-methylphenyl)acrylamide] showed an IC50 [1] of less than 0.1 µM and an IC50 ([2]; numeric bounds) greater than 6.65 µM.
For `C=CC(=O)Nc1cc(N2CCN(CC)CC2)ccc1Nc1cc2cc(C(O)c3c(F)c(OC)cc(OC)c3F)oc2cn1` (single isomer, unassigned) [Example 13B, N-(2-((2-((2,6-difluoro-3,5-dimethoxyphenyl)(hydroxy)methyl)furo[2,3-c]pyridin-5-yl)amino)-5-(4-ethylpiperazin-1-yl)phenyl)acrylamide], the IC50 ([2]; numeric bounds) was greater than 10 µM.
